Measurements taken from patent publication US20220000841A1, “INHIBITORS OF METALLO-BETA-LACTAMASES” (CENTRE NATIONAL DE LA RECHERCHE SCIENTIFIQUE, priority 2018, published 2022).
Like-named read-outs stand apart in the source and are kept apart here.

What was measured:
Assay type in all cases: biochemical
VIM-2 = VIM-2 (Escherichia coli, UniProt Q5U7L7); test: Enzymatic assay for determination of inhibition constants, reporter substrate method, purified VIM-2;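 note: purified VIM-2 hydrolysing a reporter substrate (imipenem, meropenem, cefotaxime or nitrocefin), reaction rate read as absorbance change, HEPES 50 mM at pH 7.5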
NDM-1 = NDM-1 (Klebsiella pneumoniae, UniProt C7C422); test: Enzymatic assay for determination of inhibition constants, reporter substrate method, purified NDM-1; details: isolated MBL, competitive inhibition model;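 note: purified enzyme activity followed as absorbance change from reporter substrate hydrolysis on a UV-Vis spectrophotometer or plate reader, 50 mM HEPES pH 7.5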
Protocol: (§1) The reaction rate was measured as the variation of absorbance observed upon substrate hydrolysis in a UV-Vis spectrophotometer or microplate reader at a wavelength of 300 nm (imipenem, meropenem), 260 nm (cefotaxime) or 482 nm (nitrocefin) in 50 mM HEPES buffer (pH 7.5) and in the presence of a purified MBL enzyme (such as VIM-1, VIM-2, VIM-4, NDM-1 and IMP-1, at a final concentration ranging 1-70 nM).
(§2) The inhibition constants (Ki) were determined on the basis of a model of competitive inhibition by analyzing the dependence of the ratio v0/vi (v0, hydrolysis velocity in the absence of inhibitor; vi, hydrolysis velocity in the presence of inhibitor) as a function of [I] as already described [Docquier J. D., Lamotte-Brasseur J., Galleni M., Amicosante G., Frère J. M., Rossolini G. M. (2003) J. Antimicrob. […] The slope of the plot of v0/vi vs [I], which corresponds to Km^S/(Km^S+[S])Ki (where Km^S is the Km value of the reporter substrate and [S] its concentration in the reaction mixture) and allowed the calculation of the Ki value. Alternatively, a Dixon plot analysis was carried out, by measuring the initial hydrolysis rates in the presence of variable concentrations of inhibitor and substrate.

IMP-1 = IMP-1 (Serratia marcescens, UniProt P52699); test: Enzymatic assay for determination of inhibition constants, reporter substrate method, purified IMP-1; details: for Ki: isolated MBL, competitive inhibition model; for % inhibition IMP-1: at 200 μM (maximal tested concentration);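 for all read-outs here: purified IMP-1 (1-70 nM) hydrolysing a reporter substrate, initial rates followed as absorbance change at 260, 300 or 482 nm in 50 mM HEPES pH 7.5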
Protocol: as §1, §2

[1] = at 100 μM (maximal tested concentration)
[2] = isolated MBL, competitive inhibition model, read-out: Ki VIM-2

Chain of NDM-1 (C7C422 29-270, looked up, species assumed): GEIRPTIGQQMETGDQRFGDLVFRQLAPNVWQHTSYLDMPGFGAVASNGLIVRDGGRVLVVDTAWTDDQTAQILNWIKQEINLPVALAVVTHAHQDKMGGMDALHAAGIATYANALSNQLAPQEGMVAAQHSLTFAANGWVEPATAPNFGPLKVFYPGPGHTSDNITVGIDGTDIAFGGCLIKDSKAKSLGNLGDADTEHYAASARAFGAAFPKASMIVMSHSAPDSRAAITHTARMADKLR
Chain of IMP-1 (P52699 19-246, looked up, species assumed): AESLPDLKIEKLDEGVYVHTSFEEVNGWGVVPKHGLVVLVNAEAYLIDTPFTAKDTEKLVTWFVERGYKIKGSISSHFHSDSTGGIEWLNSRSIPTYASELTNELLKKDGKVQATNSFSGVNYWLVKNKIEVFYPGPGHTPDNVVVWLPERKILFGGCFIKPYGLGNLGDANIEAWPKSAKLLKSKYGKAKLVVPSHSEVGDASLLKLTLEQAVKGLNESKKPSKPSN

SMILES | % inhibition VIM-2 (VIM-2; [1]) [% at 100 μM] | Ki (NDM-1) [µM] | Ki (IMP-1) [µM] | Ki (VIM-2; [2]) [µM] | % inhibition IMP-1 (IMP-1) [% at 200 μM] | Ki (VIM-2; as listed in Table 2, read-out: Ki on VIM-2) [µM] | % inhibition VIM-2 (VIM-2; at 200 μM (maximal tested concentration)) [% at 200 μM]
O=C(O)CSCCn1c(-c2ccccc2)n[nH]c1=S [Compound 65, [2-(3-Phenyl-5-thioxo-1,4-dihydro-1,2,4-triazol-4-yl)ethylthio]acetic acid] | 90 | > 100 | > 100 | – | – | – | –
S=c1[nH]nc(-c2ccccc2)n1CCc1ccc(OCc2ccccc2)cc1 [Compound 54, 4-[4-(Benzyloxy)phenylethyl]-5-phenyl-1,2,4-triazole-3-thione] | – | > 100 | – | 10 to 100 | 60 | – | –
Cc1ccccc1-c1n[nH]c(=S)n1/N=C/c1ccccc1C(=O)O [II, reference compound] | – | – | – | – | – | 1 to 10 | –
Sc1nnc(-c2ccccc2)n1Cc1ccccc1 [Compound 9, 4-benzyl-3-phenyl-4,5-dihydro-1H-1,2,4-triazole-5-thione] | – | > 100 | 1 to 10 | > 100 | – | – | –
O=C(O)c1ccccc1CNn1c(-c2cccc(-c3ccccc3)c2)n[nH]c1=S [Compound 51, o-{[3-(3-Biphenylyl)-5-thioxo-1,4-dihydro-1,2,4-triazol-4-ylamino]methyl}benzoic acid] | 75 | > 100 | > 100 | – | – | – | –
O=C(O)c1cccc(Cn2c(-c3ccccc3)n[nH]c2=S)c1 [Compound 52, m-[(3-Phenyl-5-thioxo-1,4-dihydro-1,2,4-triazol-4-yl)methyl]benzoic acid] | 84 | > 100 | > 100 | – | – | – | –
S=c1[nH]nc(-c2ccccc2)n1CCCc1ccccc1 [Compound 8, 3-phenyl-4-(3-phenylpropyl)-4,5-dihydro-1H-1,2,4-triazole-5-thione] | – | > 100 | – | > 100 | 70 | – | –
S=c1[nH]nc(-c2ccccc2)n1[C@@H]1C[C@H]1c1ccccc1 [Compound 20, 3-phenyl-4-[(1R,2S)-2-phenylcyclopropyl]-4,5-dihydro-1H-1,2,4-triazole-5-thione] | – | 10 to 100 | > 100 | – | – | – | 70
O=C(O)C(SCCn1c(-c2ccccc2)n[nH]c1=S)c1ccccc1 (stereo not shown) [Compound 60, Phenyl[2-(3-phenyl-5-thioxo-1,4-dihydro-1,2,4-triazol-4-yl)ethylthio]acetic acid] | 96 | > 100 | > 100 | – | – | – | –
O=C(O)c1ccccc1CCn1c(-c2ccsc2)n[nH]c1=S [Compound 58, o-{2-[3-(3-Thienyl)-5-thioxo-1,4-dihydro-1,2,4-triazol-4-yl]ethyl}benzoic acid] | 85 | > 100 | > 100 | – | – | – | –
Nc1ccc(CCn2c(-c3ccccc3)n[nH]c2=S)c(C(=O)O)c1 [Compound 61, 5-Amino-2-[2-(3-phenyl-5-thioxo-1,4-dihydro-1,2,4-triazol-4-yl)ethyl]benzoic acid] | 75 | > 100 | > 100 | – | – | – | –
O=C(O)CCCCCCCn1c(-c2ccccc2)n[nH]c1=S [Compound 59, 8-(3-Phenyl-5-thioxo-1,4-dihydro-1,2,4-triazol-4-yl)octanoic acid] | 90 | > 100 | > 100 | – | – | – | –
O=C(O)c1ccccc1CCn1c(-c2ccc3ncccc3c2)n[nH]c1=S [Compound 56, 2-{2-[3-(Quinolin-6-yl)-5-sulfanylidene-4,5-dihydro-1H-1,2,4-triazol-4-yl]ethyl}benzoic acid] | 85 | > 100 | > 100 | – | – | – | –
O=C(O)c1cc(O)ccc1CCn1c(-c2ccccc2)n[nH]c1=S [Compound 53, 5-Hydroxy-2-[2-(3-phenyl-5-thioxo-1,4-dihydro-1,2,4-triazol-4-yl)ethyl]benzoic acid] | 90 | > 100 | > 100 | – | – | – | –
